# According to patent publication US20170037028A1 (BAYER PHARMA AKTIENGESELLSCHAFT, priority 2013, published 2017):
# pIC50: −log10 of the molar value.
# Target: T1, GLUT1 (Homo sapiens, UniProt P11166)
# T1 sequence (P11166 1-492): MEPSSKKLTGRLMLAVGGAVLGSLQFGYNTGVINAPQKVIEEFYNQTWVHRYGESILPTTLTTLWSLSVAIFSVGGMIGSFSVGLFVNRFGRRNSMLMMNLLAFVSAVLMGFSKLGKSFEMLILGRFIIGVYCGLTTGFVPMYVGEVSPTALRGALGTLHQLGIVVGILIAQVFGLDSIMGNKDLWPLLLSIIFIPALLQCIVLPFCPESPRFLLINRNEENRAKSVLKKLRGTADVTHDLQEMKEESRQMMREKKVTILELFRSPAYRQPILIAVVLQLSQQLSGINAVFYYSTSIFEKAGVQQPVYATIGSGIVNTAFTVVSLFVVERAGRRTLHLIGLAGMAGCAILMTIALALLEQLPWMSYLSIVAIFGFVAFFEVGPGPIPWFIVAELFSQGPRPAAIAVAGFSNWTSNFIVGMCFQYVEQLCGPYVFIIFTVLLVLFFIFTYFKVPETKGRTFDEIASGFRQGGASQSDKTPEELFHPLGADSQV
# Assay: Indirect measurement of GLUT1 activity by quantification of intracellular ATP levels (glucose induced ATP increase)
# Assay type: cell-based
# Design: endogenous in cells; host or cells: DLD1 or CHO-K1
# Details: read-out: IC50 regarding glucose induced ATP increase (GLUT1 inhibition)
# In short: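 DLD1 or CHO-K1 cells were starved overnight in glucose-free medium with 1% FCS, then combined with an oxidative phosphorylation inhibitor. GLUT1 activity was read as glucose-induced ATP increase, GLUT2 as fructose-induced. Intracellular ATP was quantified by CellTiter-Glo luminescence.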
row,pIC50,Structure (SMILES)
1,7.34,"Cc1nn(Cc2ccc(C#N)cc2)c(C)c1NC(=O)c1cc(Br)nc2ccccc12 [Example 380, 2-bromo-N-[1-(4-cyanobenzyl)-3,5-dimethyl-1H-pyrazol-4-yl]quinoline-4-carboxamide]"
2,8.05,"CSc1cc(C(=O)Nc2c(C)nn(Cc3ccc(C#N)cc3)c2C)c2ccccc2n1 [Example 381, N-[1-(4-cyanobenzyl)-3,5-dimethyl-1H-pyrazol-4-yl]-2-(methylsulfanyl)quinoline-4-carboxamide]"
3,7.58,"CSc1cc(C(=O)Nc2c(C(F)(F)F)nn(Cc3ccc(C#N)cc3)c2C)c2ccccc2n1 [Example 382, N-[1-(4-cyanobenzyl)-5-methyl-3-(trifluoromethyl)-1H-pyrazol-4-yl]-2-(methylsulfanyl)quinoline-4-carboxamide]"
4,8.44,"Cc1c(NC(=O)c2cc(S(C)(=O)=O)nc3ccccc23)c(C(F)(F)F)nn1Cc1ccc(C#N)cc1 [Example 384, N-[1-(4-cyanobenzyl)-5-methyl-3-(trifluoromethyl)-1H-pyrazol-4-yl]-2-(methylsulfonyl)quinoline-4-carboxamide]"
5,8.72,"Cc1nn(Cc2ccc(C#N)cc2)c(C(F)(F)F)c1NC(=O)c1cc(C(N)=O)nc2cc(F)ccc12 [Example 389, N^4-[1-(4-cyanobenzyl)-3-methyl-5-(trifluoromethyl)-1H-pyrazol-4-yl]-7-fluoroquinoline-2,4-dicarboxamide]"
6,8.26,"Cc1nn(Cc2c(F)cc(C#N)cc2F)c(C)c1NC(=O)c1cc(C(N)=O)nc2cc(F)ccc12 [Example 390, N^4-[1-(4-cyano-2,6-difluorobenzyl)-3,5-dimethyl-1H-pyrazol-4-yl]-7-fluoroquinoline-2,4-dicarboxamide]"
7,8.15,"Cc1nn(Cc2c(F)cc(C#N)cc2F)c(C)c1NC(=O)c1cc(C(N)=O)nc2ccccc12 [Example 391, N^4-[1-(4-cyano-2,6-difluorobenzyl)-3,5-dimethyl-1H-pyrazol-4-yl]quinoline-2,4-dicarboxamide]"
8,7.67,"Cc1nn(Cc2c(F)cc(C#N)cc2F)c(C)c1NC(=O)c1cc(C(N)=O)nc2cc(F)c(Cl)cc12 [Example 392, 6-chloro-N^4-[1-(4-cyano-2,6-difluorobenzyl)-3,5-dimethyl-1H-pyrazol-4-yl]-7-fluoroquinoline-2,4-dicarboxamide]"
9,8.39,"Cc1nn(Cc2c(F)cc(C#N)cc2F)c(C)c1NC(=O)c1cc(C(N)=O)nc2cccc(F)c12 [Example 393, N^4-[1-(4-cyano-2,6-difluorobenzyl)-3,5-dimethyl-1H-pyrazol-4-yl]-5-fluoroquinoline-2,4-dicarboxamide]"
10,8.59,"Cc1nn(Cc2c(F)cc(C#N)cc2F)c(C)c1NC(=O)c1cc(C(N)=O)nc2ccc(Br)cc12 [Example 394, 6-bromo-N^4-[1-(4-cyano-2,6-difluorobenzyl)-3,5-dimethyl-1H-pyrazol-4-yl]quinoline-2,4-dicarboxamide]"
11,8.28,"Cc1c(NC(=O)c2cc(C(N)=O)nc3cc(F)ccc23)c(C(F)(F)F)nn1Cc1c(F)cc(C#N)cc1F [Example 395, N^4-[1-(4-cyano-2,6-difluorobenzyl)-5-methyl-3-(trifluoromethyl)-1H-pyrazol-4-yl]-7-fluoroquinoline-2,4-dicarboxamide]"
12,7.80,"Cc1c(NC(=O)c2cc(C(N)=O)nc3ccccc23)c(C(F)(F)F)nn1Cc1c(F)cc(C#N)cc1F [Example 396, N^4-[1-(4-cyano-2,6-difluorobenzyl)-5-methyl-3-(trifluoromethyl)-1H-pyrazol-4-yl]quinoline-2,4-dicarboxamide]"
13,8.12,"Cc1c(NC(=O)c2cc(C(N)=O)nc3cccc(F)c23)c(C(F)(F)F)nn1Cc1c(F)cc(C#N)cc1F [Example 397, N^4-[1-(4-cyano-2,6-difluorobenzyl)-5-methyl-3-(trifluoromethyl)-1H-pyrazol-4-yl]-5-fluoroquinoline-2,4-dicarboxamide]"
14,8.26,"Cc1c(NC(=O)c2cc(C(N)=O)nc3cc(F)c(Cl)cc23)c(C(F)(F)F)nn1Cc1c(F)cc(C#N)cc1F [Example 398, 6-chloro-N^4-[1-(4-cyano-2,6-difluorobenzyl)-5-methyl-3-(trifluoromethyl)-1H-pyrazol-4-yl]-7-fluoroquinoline-2,4-dicarboxamide]"
15,8.35,"Cc1c(NC(=O)c2cc(C(N)=O)nc3ccc(Br)cc23)c(C(F)(F)F)nn1Cc1c(F)cc(C#N)cc1F [Example 399, 6-bromo-N^4-[1-(4-cyano-2,6-difluorobenzyl)-5-methyl-3-(trifluoromethyl)-1H-pyrazol-4-yl]quinoline-2,4-dicarboxamide]"
16,5.90,"Cc1c(NC(=O)c2cc(C(N)=O)nc3cc(F)ccc23)c(C(F)(F)F)nn1Cc1ccc(-c2nnn[nH]2)cc1 [Example 400, 7-fluoro-N^4-{5-methyl-1-[4-(1H-tetrazol-5-yl)benzyl]-3-(trifluoromethyl)-1H-pyrazol-4-yl}quinoline-2,4-dicarboxamide]"
17,8.00,"COCc1ccc(Cn2nc(C(F)(F)F)c(NC(=O)c3cc(C(N)=O)nc4cc(F)ccc34)c2C)cc1 [Example 401, 7-fluoro-N^4-{1-[4-(methoxymethyl)benzyl]-5-methyl-3-(trifluoromethyl)-1H-pyrazol-4-yl}quinoline-2,4-dicarboxamide]"
18,8.17,"COCc1ccc(Cn2nc(C(F)(F)F)c(NC(=O)c3cc(C(N)=O)nc4cccc(F)c34)c2C)cc1 [Example 402, 5-fluoro-N^4-{1-[4-(methoxymethyl)benzyl]-5-methyl-3-(trifluoromethyl)-1H-pyrazol-4-yl}quinoline-2,4-dicarboxamide]"
19,9.00,"Cc1c(NC(=O)c2cc(C(N)=O)nc3cc(F)ccc23)c(C(F)(F)F)nn1Cc1ccc(CC#N)cc1 [Example 403, N^4-{1-[4-(cyanomethyl)benzyl]-5-methyl-3-(trifluoromethyl)-1H-pyrazol-4-yl}-7-fluoroquinoline-2,4-dicarboxamide]"
20,8.85,"CNC(=O)c1nc(Cn2nc(C)c(NC(=O)c3cc(C(F)(F)F)nc4ccc(Br)cc34)c2C)no1 [Example 404, 6-bromo-N-(3,5-dimethyl-1-{[5-(methylcarbamoyl)-1,2,4-oxadiazol-3-yl]methyl}-1H-pyrazol-4-yl)-2-(trifluoromethyl)quinoline-4-carboxamide]"
21,6.62,"Cc1nn(CC2CCN(C(=O)OC(C)(C)C)CC2)c(C)c1NC(=O)c1cc(C(N)=O)nc2ccccc12 [Example 405, tert-butyl 4-[(4-{[(2-carbamoylquinolin-4-yl)carbonyl]amino}-3,5-dimethyl-1H-pyrazol-1-yl)methyl]piperidine-1-carboxylate]"
22,5.82,"Cc1nn(CC2CCNCC2)c(C)c1NC(=O)c1cc(C(N)=O)nc2ccccc12 [Example 406, N^4-[3,5-dimethyl-1-(piperidin-4-ylmethyl)-1H-pyrazol-4-yl]quinoline-2,4-dicarboxamide]"
23,8.68,"CCS(=O)(=O)N1CCC(Cn2nc(C)c(NC(=O)c3cc(C(N)=O)nc4ccccc34)c2C)CC1 [Example 407, N^4-(1-{[1-(ethylsulfonyl)piperidin-4-yl]methyl}-3,5-dimethyl-1H-pyrazol-4-yl)quinoline-2,4-dicarboxamide]"
24,8.11,"Cc1cc(Cn2nc(C(F)(F)F)c(NC(=O)c3cc(C(N)=O)nc4cc(F)c(Cl)cc34)c2C)no1 [Example 408, 6-chloro-7-fluoro-N^4-{5-methyl-1-[(5-methyl-1,2-oxazol-3-yl)methyl]-3-(trifluoromethyl)-1H-pyrazol-4-yl}quinoline-2,4-dicarboxamide]"
